The values below come from patent US12059425B2, “Heterocyclic compounds and uses thereof” (Kumquat Biosciences Inc., priority 2022, dated 2024).

Experiment [1] concerns the target T1, K-Ras G12V (Homo sapiens, UniProt P01116, G12V).
T1 construct: made in house; host or cells: E. coli, e.g. BL21 (DE3)
Description: PPI-HTRF assay, K-Ras G12V / SOS1 interaction. Type of experiment: biochemical. The method in brief:
(§1)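 Compound in DMSO is dispensed first, then GST-K-Ras plus anti-GST-Eu(K), then His-hSOS1 plus anti-6His-XL665. Plates incubate about 10 min or longer before HTRF measurement at 620 and 665 nm. IC50 values are derived from the emission ratio for each K-Ras variant.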

The test system of experiment [2] is GP2D cells. Nature of the experiment: Ras cellular assay, cell proliferation GP2D. The format is cell-based. The method in brief: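 Growth inhibition read by CellTiter-Glo luminescence roughly 5 days after compound addition, which followed overnight plating of G12D-mutant GP2D cells (e.g., 800 per well). Compounds were tested as a serial dilution (e.g., 9 points, 3-fold), with IC50 fitted by four-parameter model.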

The target in experiment [3] is T2, K-Ras G12D (Homo sapiens, UniProt P01116, G12D).
T2 construct: made in house; host or cells: E. coli, e.g. BL21 (DE3)
T2 sequence (P01116 1-188 isoform P01116-2 G12D): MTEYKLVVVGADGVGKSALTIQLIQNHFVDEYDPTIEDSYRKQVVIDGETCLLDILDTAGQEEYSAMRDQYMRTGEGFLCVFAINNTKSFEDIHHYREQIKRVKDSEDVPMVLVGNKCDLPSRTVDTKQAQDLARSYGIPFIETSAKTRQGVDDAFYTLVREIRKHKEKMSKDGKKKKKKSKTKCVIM
Nature of the experiment: PPI-HTRF assay, K-Ras G12D / SOS1 interaction. Type of experiment: biochemical. The method, boiled down: as §1

Experiment [4] concerns SW620 cells. Description: Ras cellular assay, cell proliferation SW620. The conditions noted are these: Homo sapiens, SW-620. Type of experiment: cell-based. An excerpt: For example, this assay can be also used to assess selective growth inhibition of a mutant Ras protein relative to a wildtype, or relative to a different mutant Ras protein.
Experiment [5] deals with T3, K-Ras G12S (Homo sapiens, UniProt P01116, G12S).
T3 construct: made in house; host or cells: E. coli, e.g. BL21 (DE3)
T3 sequence (P01116 1-188 isoform P01116-2 G12S): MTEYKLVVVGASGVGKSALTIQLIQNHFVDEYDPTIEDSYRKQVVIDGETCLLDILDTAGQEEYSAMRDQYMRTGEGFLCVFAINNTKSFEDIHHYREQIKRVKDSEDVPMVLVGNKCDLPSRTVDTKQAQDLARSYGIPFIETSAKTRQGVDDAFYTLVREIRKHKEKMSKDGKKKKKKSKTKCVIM
Description: PPI-HTRF assay, K-Ras G12S / SOS1 interaction. Type of experiment: biochemical. The method in brief: as §1
A general note: In TR-FRET formats the signal depends on donor and acceptor labels being close together.

Experiment [6] has as its system A549 cells. Nature of the experiment: Ras cellular assay, cell proliferation A549. The format is cell-based. As to conditions: Homo sapiens. The method in brief:
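G12S-mutant A549 cells (800/well) in RPMI-1640 plus 10% heat-inactivated FBS, standard or ultra-low attachment 384-well plates, dosed the day after plating with a 10-point 3-fold series. Viability by CellTiter-Glo luminescence about 6 days later; IC50 from four-parameter fit.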

Experiment [7] has as its target T4, wildtype K-Ras (Homo sapiens, UniProt P01116).
T4 construct: made in house; host or cells: E. coli, e.g. BL21 (DE3)
Nature of the experiment: PPI-HTRF assay, wildtype K-Ras / SOS1 interaction. Type of experiment: biochemical. The method in brief: as §1

Setting [8] is: HTRF, K-Ras G12V, read-out: PPI-HTRF-5 nM (K-Ras G12V IC50).
Setting [9] is: HTRF, K-Ras G12D, read-out: PPI-HTRF-5 nM (K-Ras G12D IC50).
The mark [10] stands for this setting: read-out: PPI-HTRF-5 nM (K-Ras G12S IC50).
Setting [11] is: HTRF, K-Ras wt, read-out: PPI-HTRF-5 nM (K-Ras wt IC50).

Where two headings read alike, the source gives them in different places.

T1 sequence (P01116 1-188 isoform P01116-2 G12V): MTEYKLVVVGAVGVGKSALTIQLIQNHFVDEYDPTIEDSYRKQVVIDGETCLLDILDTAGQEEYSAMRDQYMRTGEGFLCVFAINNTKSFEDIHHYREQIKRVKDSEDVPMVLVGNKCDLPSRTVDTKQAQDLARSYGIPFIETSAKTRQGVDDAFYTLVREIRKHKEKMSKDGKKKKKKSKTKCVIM
T4 sequence (P01116 1-188 isoform P01116-2): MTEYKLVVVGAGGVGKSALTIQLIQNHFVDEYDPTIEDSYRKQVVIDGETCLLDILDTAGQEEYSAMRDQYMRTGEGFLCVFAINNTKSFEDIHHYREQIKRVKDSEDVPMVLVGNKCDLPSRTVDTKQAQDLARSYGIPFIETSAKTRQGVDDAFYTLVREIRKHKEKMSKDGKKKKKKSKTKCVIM

For orientation: IC50 means the midpoint of a concentration-inhibition curve. For the compound `CN1c2nc(OC[C@@]34CCCN3C[C@H](F)C4)nc3c(F)c(-c4ccc(F)c5sc(N)c(C#N)c45)c(Cl)c(c23)OC2CN(C(=O)C3N[C@H]3C3CC3)CC21` (stereo partly drawn) [compound 108, 2-amino-4-(6-chloro-9-((3S)-3-cyclopropylaziridine-2-carbonyl)-4-fluoro-2-(((2R,7aS)-2-fluorotetrahydro-1H-pyrrolizin-7a(5H)-yl)methoxy)-11-methyl-7a,8,9,10,10a,11-hexahydropyrrolo[3′,4′:2,3][1,4]oxazepino [5,6,7-de]quinazolin-5-yl)-7-fluorobenzo[b]thiophene-3-carbonitrile], the IC50 in experiment [1] was less than 5 µM; in experiment [2] it was less than 5 µM; in experiment [3] it was less than 5 µM; in experiment [4] it was more than 5 µM; in experiment [5] (PPI-HTRF-5 nM (K-Ras G12S IC50)), less than 5 µM; in experiment [6], more than 5 µM. In experiment [7], this compound gave a half-maximal inhibitory concentration (IC50) of less than 5 µM.

Regarding `N#Cc1c(N)sc2c(F)ccc(-c3c(Cl)c4c5c(nc(OCC67CCCN6C[C@H](F)C7)nc5c3F)N3CCCCCC3CO4)c12` (stereo partly drawn) [compound 193, 2-amino-4-(3-chloro-1-fluoro-13-(((2R,7aS)-2-fluorotetrahydro-1H-pyrrolizin-7a(5H)-yl)methoxy)-5a,6,7,8,9,10-hexahydro-5H-azepino[2′,1′:3,4][1,4]oxazepino[5,6,7-de]quinazolin-2-yl)-7-fluorobenzo[b]thiophene-3-carbonitrile], the IC50 in experiment [1] (setting [8]), in experiment [2], in experiment [3] (setting [9]), in experiment [4], in experiment [5] (setting [10]) and in experiment [6] was less than 5 µM in each case. In addition, the half-maximal inhibitory concentration (IC50) in experiment [7] (setting [11]) is less than 5 µM.

For the compound `N#Cc1c(N)sc2c(F)ccc(-c3c(Cl)c4c5c(nc(OC[C@@]67CCCN6C[C@H](F)C7)nc5c3F)N(CC(F)F)C3COCC3CO4)c12` (stereo partly drawn) [compound 188, 2-amino-4-(6-chloro-12-(2,2-difluoroethyl)-4-fluoro-2-(((2R,7aS)-2-fluorotetrahydro-1H-pyrrolizin-7a(5H)-yl)methoxy)-8a,9,11a,12-tetrahydro-8H,11H-furo[3′,4′:6,7][1,5]oxazocino[4,3,2-de]quinazolin-5-yl)-7-fluorobenzo[b]thiophene-3-carbonitrile], the IC50 in experiment [1] (setting [8]), in experiment [2], in experiment [3] (setting [9]), in experiment [4], in experiment [5] (setting [10]) and in experiment [6] was less than 5 µM in each case. The 50% inhibitory concentration (IC50) in experiment [7] (setting [11]) was less than 5 µM.

In the case of `N#Cc1c(N)sc2c(F)ccc(-c3c(Cl)c4c5c(nc(OC[C@@]67CCCN6C[C@H](F)C7)nc5c3F)N(CCC3CNC3)C3COCC3CO4)c12` (stereo partly drawn) [compound 171, 2-amino-4-(12-(2-(azetidin-3-yl)ethyl)-6-chloro-4-fluoro-2-(((2R,7aS)-2-fluorotetrahydro-1H-pyrrolizin-7a(5H)-yl)methoxy)-8a,9,11a,12-tetrahydro-8H,11H-furo[3′,4′:6,7][1,5]oxazocino[4,3,2-de]quinazolin-5-yl)-7-fluorobenzo[b]thiophene-3-carbonitrile], the IC50 in experiment [1] (setting [8]) was less than 5 µM; in experiment [2] it was less than 5 µM; in experiment [3] (setting [9]), less than 5 µM; in experiment [4] it was more than 5 µM; in experiment [5] (setting [10]), less than 5 µM; in experiment [6], more than 5 µM. Moreover, the IC50 in experiment [7] (setting [11]) was less than 5 µM.

Turning to `N#Cc1c(N)sc2c(F)ccc(-c3c(Cl)c4c5c(nc(OC[C@@]67CCCN6C[C@H](F)C7)nc5c3F)N3CCOCC3CO4)c12` (stereo partly drawn) [compound 116, 2-amino-4-(6-chloro-4-fluoro-2-(((2R,7aS)-2-fluorotetrahydro-1H-pyrrolizin-7a(5H)-yl)methoxy)-8a,9,11,12-tetrahydro-8H-[1,4]oxazino[3′,4′:3,4][1,4]oxazepino[5,6,7-de]quinazolin-5-yl)-7-fluorobenzo[b]thiophene-3-carbonitrile], the half-maximal inhibitory concentration (IC50) in experiment [1] (setting [8]), in experiment [2], in experiment [3] (setting [9]), in experiment [4], in experiment [5] (setting [10]) and in experiment [6] was less than 5 µM in each case. Moreover, the IC50 in experiment [7] (setting [11]) was less than 5 µM.

Turning to `N#Cc1c(N)sc2c(F)ccc(-c3c(Cl)c4c5c(nc(OCC67CCCN6C[C@H](F)C7)nc5c3F)N3CCC(O)CC3CO4)c12` (stereo partly drawn) [compound 132, 2-amino-4-(3-chloro-1-fluoro-12-(((2R,7aS)-2-fluorotetrahydro-1H-pyrrolizin-7a(5H)-yl)methoxy)-7-hydroxy-5,5a,6,7,8,9-hexahydropyrido[2′,1′:3,4][1,4]oxazepino[5,6,7-de]quinazolin-2-yl)-7-fluorobenzo[b]thiophene-3-carbonitrile], the IC50 in experiment [1] (setting [8]), in experiment [2], in experiment [3] (setting [9]), in experiment [4], in experiment [5] (setting [10]) and in experiment [6] was less than 5 µM throughout. Further, the 50% inhibitory concentration (IC50) in experiment [7] (setting [11]) is less than 5 µM.

Take `N#Cc1c(N)sc2c(F)ccc(-c3c(Cl)c4c5c(nc(OC[C@@]67CCCN6C[C@H](F)C7)nc5c3F)N3CC(OC(F)F)CCC3CO4)c12` (single isomer, unassigned) [compound 148]: the half-maximal inhibitory concentration (IC50) in experiment [1] (setting [8]) was less than 5 µM; in experiment [2], less than 5 µM; in experiment [3] (setting [9]), less than 5 µM; in experiment [4], less than 5 µM; in experiment [5] (setting [10]) it was less than 5 µM; in experiment [6] it was more than 5 µM. Moreover, the IC50 in experiment [7] (setting [11]) was less than 5 µM.

In the case of `N#Cc1c(N)sc2c(F)ccc(-c3c(Cl)c4c5c(nc(OC[C@@]67CCCN6C[C@H](F)C7)nc5c3F)N3CCNCCC3CO4)c12` (stereo partly drawn) [compound 142, 2-amino-4-(6-chloro-4-fluoro-2-(((2R,7aS)-2-fluorotetrahydro-1H-pyrrolizin-7a(5H)-yl)methoxy)-8a,9,10,11,12,13-hexahydro-8H-[1,4]diazepino[7′,1′:3,4][1,4]oxazepino [5,6,7-de]quinazolin-5-yl)-7-fluorobenzo[b]thiophene-3-carbonitrile], the half-inhibitory concentration (IC50) in experiment [1] (setting [8]), in experiment [2], in experiment [3] (setting [9]), in experiment [4], in experiment [5] (setting [10]) and in experiment [6] was less than 5 µM each time. Moreover, the concentration for half-maximal inhibition (IC50) in experiment [7] (setting [11]) is less than 5 µM.

As for `CN1c2nc(OC[C@@]34CCCN3C[C@H](F)C4)nc3c(F)c(-c4ccc(F)c5sc(N)c(C#N)c45)c(Cl)c(c23)OCC2CNCC21` (stereo partly drawn) [compound 140, 2-amino-4-(6-chloro-4-fluoro-2-(((2R,7aS)-2-fluorotetrahydro-1H-pyrrolizin-7a(5H)-yl)methoxy)-12-methyl-8a,9,10,11,11a,12-hexahydro-8H-pyrrolo[3′,4′:6,7][1,5]oxazocino[4,3,2-de]quinazolin-5-yl)-7-fluorobenzo[b]thiophene-3-carbonitrile], the IC50 in experiment [1] (setting [8]), in experiment [2], in experiment [3] (setting [9]), in experiment [4], in experiment [5] (setting [10]) and in experiment [6] was less than 5 µM throughout. Besides, the IC50 in experiment [7] (setting [11]) was less than 5 µM.

Consider `N#Cc1c(N)sc2c(F)ccc(-c3c(Cl)c4c5c(nc(OC[C@@]67CCCN6C[C@H](F)C7)nc5c3F)N3CC5(CCCC3CCO4)CN(C(=O)C3CC3(F)F)C5)c12` (stereo partly drawn) [compound 127, 2-amino-4-(3-chloro-1′-(2,2-difluorocyclopropane-1-carbonyl)-1-fluoro-14-(((2R,7aS)-2-fluorotetrahydro-1H-pyrrolizin-7a(5H)-yl)methoxy)-5,6,6a,7,8,9-hexahydro-11H-spiro[azepino[1′,2′:5,6][1,5]oxazocino[4,3,2-de]quinazoline-10,3′-azetidin]-2-yl)-7-fluorobenzo[b]thiophene-3-carbonitrile], for which the 50% inhibitory concentration (IC50) in experiment [1] (setting [8]) was less than 5 µM; in experiment [2], less than 5 µM; in experiment [3] (setting [9]), less than 5 µM; in experiment [4] it was less than 5 µM; in experiment [5] (setting [10]), less than 5 µM; in experiment [6], more than 5 µM. The 50% inhibitory concentration (IC50) in experiment [7] (setting [11]) is less than 5 µM.

`N#Cc1c(N)sc2c(F)ccc(-c3c(Cl)c4c5c(nc(OC[C@@]67CCCN6C[C@H](F)C7)nc5c3F)N3Cc5ccnn5CCC3CO4)c12` (stereo partly drawn) [compound 134, 2-amino-4-(3-chloro-1-fluoro-15-(((2R,7aS)-2-fluorotetrahydro-1H-pyrrolizin-7a(5H)-yl)methoxy)-5,5a,6,7-tetrahydro-12H-pyrazolo[5″,1″:3′,4′][1,4]diazepino[7′,1′:3,4][1,4]oxazepino[5,6,7-de]quinazolin-2-yl)-7-fluorobenzo[b]thiophene-3-carbonitrile]: the IC50 in experiment [1] (setting [8]), in experiment [2], in experiment [3] (setting [9]), in experiment [4], in experiment [5] (setting [10]) and in experiment [6] was less than 5 µM each time. In experiment [7] (setting [11]), the IC50 is less than 5 µM.
